For data set [1] the following is noted: rat, in vivo; cited from earlier work.
Data set [2] is described as follows: Solubility of CORT in water and other solutions. The class given is physicochemical. Here is the method:
The solubility of CORT in various water and other solutions were evaluated over a period of 24 h.

For data set [3] the following is noted: cited from earlier work.

Converted amounts (≈) assume the structure as drawn.

As to `CC1(C)O[C@@H]2C[C@H]3[C@@H]4CCC5=CC(=O)C=C[C@]5(C)[C@@]4(F)[C@@H](O)C[C@]3(C)[C@]2(C(=O)CO)O1` [Triamcinolone acetonide], in data set [1], the “acute toxicity (oral LD50)” value was 1451 mg/kg. Also, the solubility at 24 h in data set [2] (DMSO:ddH2O 1:4, aqueous with cosolvent or surfactant or cyclodextrin, DMSO:ddH2O ratio of 1:4) was about 1000 µg/mL; in data set [2] (ddH2O and water-based solutions of 2% alginate and 12% acrylamide, 24 h) it was 10 to 100 µg/mL (≈ 23 to 230 µM). Moreover, the solubility in data set [2] (water 37° C., input of the FE model, read-out: maximum solubility sol(water 37° C.) / Csol) amounted to 33 µg/mL (≈ 75.9 µM). Further, the water solubility in data set [3] is 20 µg/mL (≈ 46 µM).
